# Measurements from the supplement of paper PMC10307832.
# Key:
# Experiment in all cases: relative viability (nuclei count vs DMSO), 5 days (fraction); higher = more cells survive
# GSK126 + Palbociclib = compound: CC[C@H](C)N1C=C(C2=C(C=C(C=C21)C3=CN=C(C=C3)N4CCNCC4)C(=O)NCC5=C(C=C(NC5=O)C)C)C [GSK126] + CC(=O)c1c(C)c2cnc(Nc3ccc(N4CCNCC4)cn3)nc2n(C2CCCC2)c1=O [Palbociclib] (partner 0.5 µM)
# Outline: (§1)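 Cells from lung cancer lines were seeded into 1536-well plates and, one day later, dosed by pin tool. Treatments were either a single drug or a fixed dose of an anchor drug with five library-drug doses (not always all listed) in √10 steps. After 5 days, nuclei were stained in a one-step fixation (final 0.05% Triton X-100, 1% formaldehyde, 1 ug/ml Hoechst) and counted on 4× images, and relative viability is the treated-to-vehicle nuclei ratio, as the median of duplicate plates.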
# Carboplatin + Dasatinib = compound: C1CC(C1)(C(=O)O)C(=O)O.[NH2-].[NH2-].[Pt+2] [Carboplatin] + Cc1nc(Nc2ncc(C(=O)Nc3c(C)cccc3Cl)s2)cc(N2CCN(CCO)CC2)n1 [Dasatinib] (partner 0.075 µM)
# Outline: as §1
# GSK126 + Navitoclax = compound: CC[C@H](C)N1C=C(C2=C(C=C(C=C21)C3=CN=C(C=C3)N4CCNCC4)C(=O)NCC5=C(C=C(NC5=O)C)C)C [GSK126] + CC1(C)CCC(c2ccc(Cl)cc2)=C(CN2CCN(c3ccc(C(=O)NS(=O)(=O)c4ccc(N[C@H](CCN5CCOCC5)CSc5ccccc5)c(S(=O)(=O)C(F)(F)F)c4)cc3)CC2)C1 [Navitoclax] (partner 0.5 µM)
# Outline: as §1
# GSK126 + Pemetrexed = compound: CC[C@H](C)N1C=C(C2=C(C=C(C=C21)C3=CN=C(C=C3)N4CCNCC4)C(=O)NCC5=C(C=C(NC5=O)C)C)C [GSK126] + Nc1nc2[nH]cc(CCc3ccc(C(=O)N[C@@H](CCC(=O)O)C(=O)O)cc3)c2c(=O)[nH]1 [Pemetrexed] (partner 0.2 µM)
# Outline: as §1
Cell Line,relative viability (GSK126 + Palbociclib; first compound 0.08 µM),relative viability (GSK126 + Palbociclib; first compound 0.253 µM),relative viability (GSK126 + Palbociclib; first compound 0.8 µM),relative viability (GSK126 + Palbociclib; first compound 2.53 µM),relative viability (GSK126 + Palbociclib; first compound 8 µM),relative viability (Carboplatin + Dasatinib; first compound 0.08 µM),relative viability (Carboplatin + Dasatinib; first compound 0.253 µM),relative viability (Carboplatin + Dasatinib; first compound 0.8 µM),relative viability (Carboplatin + Dasatinib; first compound 2.53 µM),relative viability (Carboplatin + Dasatinib; first compound 8 µM),relative viability (GSK126 + Navitoclax; first compound 0.08 µM),relative viability (GSK126 + Navitoclax; first compound 0.253 µM),relative viability (GSK126 + Navitoclax; first compound 0.8 µM),relative viability (GSK126 + Navitoclax; first compound 2.53 µM),relative viability (GSK126 + Navitoclax; first compound 8 µM),relative viability (GSK126 + Pemetrexed; first compound 0.08 µM),relative viability (GSK126 + Pemetrexed; first compound 0.253 µM),relative viability (GSK126 + Pemetrexed; first compound 0.8 µM),relative viability (GSK126 + Pemetrexed; first compound 2.53 µM),relative viability (GSK126 + Pemetrexed; first compound 8 µM)
NCI-H1651,0.493,0.512,0.515,0.537,0.514,0.436,0.397,0.344,0.435,0.216,1.19,0.943,1.07,1.07,1.2,0.651,0.594,0.566,0.67,0.636
NCI-H1666,0.642,0.613,0.6,0.636,0.692,0.836,0.774,0.589,0.533,0.561,1.08,0.982,1.02,0.833,1.12,0.872,0.936,0.766,0.796,0.807
NCI-H1734,0.384,0.348,0.342,0.375,0.333,0.471,0.449,0.454,0.463,0.443,0.895,0.845,0.843,0.881,0.86,0.406,0.411,0.463,0.448,0.461
NCI-H1755,0.465,0.394,0.458,0.43,0.445,0.451,0.441,0.395,0.462,0.452,1.07,0.996,0.999,0.997,0.969,0.401,0.483,0.402,0.403,0.36
NCI-H1792,0.642,0.627,0.659,0.661,0.629,0.831,0.776,0.816,0.692,0.62,0.733,0.644,0.655,0.664,0.658,0.89,0.727,0.806,0.698,0.818
NCI-H1793,0.351,0.318,0.299,0.351,0.273,0.432,0.384,0.394,0.355,0.381,0.503,0.491,0.379,0.369,0.416,0.981,0.825,0.876,0.916,0.932
NCI-H1915,0.554,0.496,0.516,0.56,0.583,0.288,0.304,0.315,0.305,0.255,0.83,0.789,0.786,0.789,0.786,0.573,0.484,0.504,0.477,0.484
NCI-H1944,0.407,0.334,0.332,0.36,0.352,0.235,0.206,0.226,0.22,0.174,1.28,1.02,1.01,0.996,1.2,0.719,0.641,0.607,0.654,0.567
NCI-H1975,0.633,0.591,0.636,0.561,0.627,0.433,0.374,0.358,0.366,0.375,1.04,1.18,0.94,0.998,0.892,0.276,0.306,0.304,0.305,0.277
NCI-H1993,0.751,0.605,0.606,0.797,0.632,0.517,0.591,0.522,0.559,0.601,0.981,0.931,0.754,1.06,0.892,0.583,0.555,0.628,0.586,0.687
NCI-H2009,0.183,0.176,0.181,0.257,0.322,0.321,0.286,0.29,0.291,0.249,1.23,1.14,1.19,1.1,1.16,1.11,1.03,1,0.982,1.06
NCI-H2023,0.505,0.442,0.349,0.442,0.399,0.584,0.635,0.471,0.29,0.149,1.04,0.984,1.04,1.09,0.995,0.251,0.231,0.224,0.268,0.13
NCI-H2085,0.477,0.456,0.466,0.453,0.47,0.243,0.293,0.243,0.239,0.255,1.16,1.12,1.19,1.09,1.19,1.03,0.874,0.894,0.854,0.978
NCI-H2087,0.217,0.215,0.191,0.212,0.206,0.85,0.932,0.833,0.689,0.613,0.992,0.917,1.14,1.02,1.14,0.611,0.666,0.685,0.645,0.648
NCI-H2126,0.343,0.359,0.327,0.39,0.354,0.727,0.693,0.71,0.57,0.501,0.915,0.919,0.812,0.852,0.934,0.71,0.725,0.702,0.686,0.645
NCI-H2170,0.433,0.388,0.385,0.397,0.394,0.634,0.654,0.663,0.583,0.468,0.623,0.607,0.575,0.632,0.606,0.249,0.245,0.271,0.256,0.264
NCI-H2228,0.985,0.519,0.713,0.674,0.967,0.667,0.482,0.425,0.444,0.326,0.55,1.01,1.1,0.863,0.837,0.374,0.312,0.354,0.312,0.392
NCI-H2347,0.46,0.385,0.469,0.422,0.439,0.325,0.26,0.346,0.322,0.273,1.03,0.679,0.688,0.799,0.772,0.422,0.396,0.448,0.441,0.461
NCI-H2405,0.586,0.507,0.537,0.557,0.523,0.234,0.206,0.214,0.191,0.215,0.76,0.708,0.805,0.895,0.552,1.01,0.993,0.994,1.09,0.94
NCI-H3122,0.225,0.181,0.181,0.183,0.187,0.759,0.996,0.87,0.961,0.816,1.04,1.06,1.05,1,1.02,0.203,0.208,0.185,0.204,0.209
PC-3 [JPC-3],0.516,0.565,0.565,0.488,0.485,1,1.09,0.985,0.95,0.864,0.877,0.862,0.874,0.76,0.753,1.15,1.04,1.08,1.22,1.08
PC-14,0.517,0.505,0.539,0.566,0.469,0.288,0.292,0.261,0.131,0.068,1.04,0.998,1.02,0.95,0.804,0.131,0.133,0.135,0.155,0.148
RERF-LC-KJ,1.15,1.27,1.02,1.04,1.09,0.892,0.767,0.747,0.706,0.517,1.29,1.02,1.18,0.956,0.828,0.462,0.465,0.443,0.462,0.461
SK-LU-1,0.402,0.364,0.412,0.389,0.414,0.198,0.205,0.166,0.179,0.165,0.857,0.819,0.911,0.915,0.855,1.06,0.938,0.956,0.953,1.06
SK-MES-1,0.384,0.324,0.337,0.329,0.35,0.574,0.354,0.344,0.379,0.363,1.4,1.27,1.1,1.33,1.16,1.01,0.996,0.979,0.941,1.09
SW 1573,0.496,0.472,0.435,0.361,0.403,0.58,0.495,0.474,0.507,0.329,0.894,0.955,1.2,1.06,1.07,0.945,0.981,0.934,1.08,0.877
